Experimental data: ChEMBL document CHEMBL2073958, “Active transport of imatinib into and out of cells: implications for drug resistance” (Blood, 2004)

Biological target: ATP-dependent translocase ABCB1 (Homo sapiens, UniProt P08183)
Assay: TP_TRANSPORTER: transepithelial transport in MDR1-transfected MDCKII cells
Format: functional, cell-based
Settings: dog, mdck-ii

ATP-dependent translocase ABCB1, sequence (P08183 whole entry): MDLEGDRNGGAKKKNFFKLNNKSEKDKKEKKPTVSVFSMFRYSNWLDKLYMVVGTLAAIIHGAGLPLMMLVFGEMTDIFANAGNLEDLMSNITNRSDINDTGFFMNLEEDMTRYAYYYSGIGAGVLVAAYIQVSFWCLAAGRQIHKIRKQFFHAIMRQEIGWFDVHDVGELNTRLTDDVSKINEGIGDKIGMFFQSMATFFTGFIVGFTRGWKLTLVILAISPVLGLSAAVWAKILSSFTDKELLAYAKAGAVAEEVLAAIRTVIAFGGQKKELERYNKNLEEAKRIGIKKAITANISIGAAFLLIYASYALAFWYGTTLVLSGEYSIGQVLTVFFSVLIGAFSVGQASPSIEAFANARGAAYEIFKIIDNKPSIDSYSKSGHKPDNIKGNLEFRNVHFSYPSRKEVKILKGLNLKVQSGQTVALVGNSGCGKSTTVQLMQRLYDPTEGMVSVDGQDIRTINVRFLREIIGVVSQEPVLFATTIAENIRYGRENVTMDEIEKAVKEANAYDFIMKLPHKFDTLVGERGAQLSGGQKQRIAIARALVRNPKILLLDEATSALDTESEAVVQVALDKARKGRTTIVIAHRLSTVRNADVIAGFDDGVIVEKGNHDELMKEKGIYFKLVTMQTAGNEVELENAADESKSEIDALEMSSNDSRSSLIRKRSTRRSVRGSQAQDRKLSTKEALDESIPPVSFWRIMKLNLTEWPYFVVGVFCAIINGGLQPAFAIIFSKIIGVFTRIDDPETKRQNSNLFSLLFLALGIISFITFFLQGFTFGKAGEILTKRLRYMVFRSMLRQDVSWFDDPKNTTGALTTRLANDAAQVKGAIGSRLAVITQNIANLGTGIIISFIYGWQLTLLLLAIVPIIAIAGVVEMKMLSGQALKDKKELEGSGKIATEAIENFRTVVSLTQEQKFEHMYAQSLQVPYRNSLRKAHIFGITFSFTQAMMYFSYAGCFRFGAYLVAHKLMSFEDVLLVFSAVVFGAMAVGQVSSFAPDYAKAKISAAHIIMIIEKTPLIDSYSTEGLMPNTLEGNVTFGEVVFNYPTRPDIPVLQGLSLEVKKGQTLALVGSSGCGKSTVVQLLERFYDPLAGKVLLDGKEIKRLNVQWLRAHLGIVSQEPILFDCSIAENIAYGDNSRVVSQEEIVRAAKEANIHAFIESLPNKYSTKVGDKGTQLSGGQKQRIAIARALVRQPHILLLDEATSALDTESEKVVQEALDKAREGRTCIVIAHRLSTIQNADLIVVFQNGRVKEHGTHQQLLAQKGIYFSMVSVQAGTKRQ

## Cc1ccc(NC(=O)c2ccc(CN3CCN(C)CC3)cc2)cc1Nc1nccc(-c2cccnc2)n1 [IMATINIB]
  Activity: substrate [+]
